In PMC6940354, “Comparative Assessment of the New PDE7 Inhibitor – GRMS-55 and Lisofylline in Animal Models of Immune-Related Disorders: A PK/PD Modeling Approach” (Pharmaceutical Research, 2020):
Converted amounts (≈) assume the structure as drawn. Like-named read-outs stand apart in the source and are kept apart here.

Columns and labels:
[1] = system: TNF-α plasma levels in male Wistar rats with LPS-induced endotoxemia; experiment: LPS-induced endotoxemia in rats, PK/PD model of plasma TNF-α; format: in vivo, rat; conditions: for IC50: Rattus norvegicus, iv; for activity in inhibiting TNF-α release in vivo, times lower than that of rolipram: ratio of IC50 values to rolipram
Description: Male Wistar rats were implanted with catheters (SAI Infusion Technologies, USA) into the jugular vein and after a two-day recovery period they were administered with LPS dissolved in saline at a dose of 1 mg kg ^−1 into the tail vein simultaneously with one of the investigated compounds. […] The doses of the compounds were selected based on the literature data or results of our previous experiments. Each control group received LPS at the same IV dose and an appropriate volume of corresponding vehicle. […] The plasma samples were collected and stored at −80°C until analysis.
TNF-α levels in LPS-stimulated rat blood in vitro and in rat plasma samples from the in vivo studies were analyzed by the Rat TNF-α Quantikine ELISA Immunoassay Kit (R&D Systems, USA) according to the manufacturer’s instructions. The assay was linear at the range of 12.5–800 pg mL^−1. Levels of TNF-α in mice serum were measured by ELISA Kits for Tumor Necrosis Factor Alpha (Cloud-Clone Corp., USA). This assay was linear at the range of 15.6–1000 pg mL^−1. Absorbance was measured at 450 nm using a POLARstar Omega multi-mode microplate reader (BMG LABTECH, Germany).
PK/PD and PK/PD/DIS progression models were developed considering the mechanism of action of the investigated compounds, the mechanisms of disease progression in the case of CIA, and the subsequent stages leading to TNF-α release in the case of LPS-induced endotoxemia. Various numbers of transit compartments were tested during development of the models, and the final models were chosen based on the goodness-of-fit criteria, such as AIC, SBC, a visual inspection of the fitting, and parameter precision. Estimated values of pharmacokinetic parameters were fixed during PK/PD and PK/PD/DIS progression model fitting procedures. […] PK/PD and PK/PD/DIS progression modeling were performed in ADAPT 5 software using the weighted least squares algorithm.
Therefore, as a result of PK/PD analysis, three sets of pharmacodynamic parameters were obtained based on the data from the three individual experiments.
The applied model is a modified indirect response model ([19]) with implemented transit compartments (T1-T4) that describe the delay of the observed pharmacodynamic response. In this scheme τ is the mean transit time, kin is the time limited (from 0 to tlag) zero-order rate constant of production of a TNF-α precursor (e.g., TNF-α mRNA). Different numbers of transit compartments were tested during the model development, but the best fit was observed using four transit compartments.
All Imax values were fixed to 1.

[2] = system: collagen-induced arthritis (CIA) in female Lewis rats; experiment: Histological evaluation of ankle cross-sections from CIA rats; format: in vivo, rat; conditions: multiple administration, compared to vehicle control
Description: At a day 0 of the experiment animals were subcutaneously (SC) injected at the base of the tail with 200 μL of the emulsion using a 27 gauge × 5/8″ needle and Hamilton syringe. At day 7 after the initial immunization, a booster injection with 100 μL of emulsion was performed. Ninety % of rats developed symptoms of disease (paw swelling >150% of day 0) at day 20 of the experiment. At this day, diseased animals were randomly divided into five groups (n = 6). […] One investigated group received (±)-LSF dissolved in saline at an SC dose of 80 mg kg^−1 once daily. The corresponding control groups were administered with appropriate volumes of vehicles IP or SC. At day 40 animals were sacrificed. Hind paws of rats were taken and immersed into 4% buffered formalin solution for a subsequent histological analysis. Blood samples were collected and allowed to clot for 20 min and then centrifuged at 2000 x g for 15 min. Serum samples were collected and frozen at -80°C.
The morphological studies were performed with the imaging CellSens Dimention (Olympus) software. Osteoarthritis histopathology was assessed based on the symptoms associated with synovial inflammation, chondropathy, and subchondral osteoarthritis. Synovitis index estimation involved synovial inflammation, synovial lining thickness, dense of cellularity, and presence of perivascular lymphoid aggregates, where normal synovium (score 0) is defined as thin linning with sparse cellular distribution and no/few inflammatory cells, mild and moderate synovial inflammation (score 1 to 2) indicate thickness of linning with dense cellularity with inflammatory cells, and severe inflammation (score 3) means hypervascular synovitis containing lymphoid aggregates. Two aspects of chondropathy were graded: surface integrity and chondrocyte yielding score 0 for normal morphology to score 3 for chondral lesion with chondrocyte hypercellurarity and/or cloning, and complete cartilage surface integrity loss. Subchondral plate thickening, bone trabeculae deterioration, bone marrow lesion (bone pseudocysts - cavitary lesion formation) associated with fibrovascular replacement of marrow spaces were accounted for subchondral osteoarthritis with grading score from 0 to 3 in severe lesion. The sample preparation procedure for histological evaluation is described in the supplementary materials.
The hind paws were cut about 0.5 cm above the rat joint. Then the joints were fixed in 4% buffered formalin for one week, decalcified, dehydrated in ethanol solutions of increasing concentrations, and embedded in the paraffin blocks. Subsequently, paws were serially cut at 6-μm thickness using a rotational microtome Leica RM 2145 type and stained with Masson's Trichrome. Digital images were taken using a computerized digital camera (Olympus UC90, Olympus).

[3] = target: hrPDE3A (Homo sapiens, UniProt Q14432); experiment: PDE-Glo Phosphodiesterase Assay, hrPDE3A
Description: (§1) Inhibitory activity of the investigated and reference compounds against various subtypes of PDEs was analyzed using the PDE-Glo Phosphodiesterase Assay following the manufacturer’s instruction (Promega Corp., USA). […] The values of IC50, Imax, and γ parameters of the investigated and reference compounds were estimated using non-linear regression in Phoenix WinNonlin v. […] Each sample was performed in quadruplicate and the relative activity of each sample was calculated as E=sample activity/control activity·100% .
(§2) One and a half μL aliquots of PDE-Glo reaction buffer containing appropriate amounts of human recombinant PDE (hrPDE) 1B, 2A, 3A, 4B, 4D, 5A, 7A, or 10A (SignalChem, Richmond, Canada) were placed into separate wells of a 384-well plate (Thermo Scientific, USA). The investigated compounds were initially dissolved in DMSO and then a serial dilution with DMSO was performed. Each dilution was mixed with PDE-Glo reaction buffer at a ratio of 1:5 (v/v). Then, 1 μL of the solution containing a PDE inhibitor and 2.5 μL of the substrate solution were added to each well. cGMP was used as a substrate in the case of hrPDE2A and hrPDE5A, while cAMP for other types of hrPDEs. The samples were incubated for 10 min at 30°C. […] The luminescence of each sample was measured by a microplate reader POLARstar Omega (BMG LABTECH, Germany).

[4] = target: hrPDE10A (Homo sapiens, UniProt Q9Y233); experiment: PDE-Glo Phosphodiesterase Assay, hrPDE10A
Description: as §1, §2

[5] = read-out: IC50, concentration of compound producing 50% of Imax (inhibition of TNF-α release in vivo), Final estimate (CV%), plasma concentration, PK/PD model, Imax fixed to 1, male Wistar rats, LPS 1 mg kg^−1 IV, IV GRMS-55 20, rolipram 5, (±)-LSF and PTX 40 and 80 mg kg^−1

Chain of hrPDE3A (Q14432 whole entry): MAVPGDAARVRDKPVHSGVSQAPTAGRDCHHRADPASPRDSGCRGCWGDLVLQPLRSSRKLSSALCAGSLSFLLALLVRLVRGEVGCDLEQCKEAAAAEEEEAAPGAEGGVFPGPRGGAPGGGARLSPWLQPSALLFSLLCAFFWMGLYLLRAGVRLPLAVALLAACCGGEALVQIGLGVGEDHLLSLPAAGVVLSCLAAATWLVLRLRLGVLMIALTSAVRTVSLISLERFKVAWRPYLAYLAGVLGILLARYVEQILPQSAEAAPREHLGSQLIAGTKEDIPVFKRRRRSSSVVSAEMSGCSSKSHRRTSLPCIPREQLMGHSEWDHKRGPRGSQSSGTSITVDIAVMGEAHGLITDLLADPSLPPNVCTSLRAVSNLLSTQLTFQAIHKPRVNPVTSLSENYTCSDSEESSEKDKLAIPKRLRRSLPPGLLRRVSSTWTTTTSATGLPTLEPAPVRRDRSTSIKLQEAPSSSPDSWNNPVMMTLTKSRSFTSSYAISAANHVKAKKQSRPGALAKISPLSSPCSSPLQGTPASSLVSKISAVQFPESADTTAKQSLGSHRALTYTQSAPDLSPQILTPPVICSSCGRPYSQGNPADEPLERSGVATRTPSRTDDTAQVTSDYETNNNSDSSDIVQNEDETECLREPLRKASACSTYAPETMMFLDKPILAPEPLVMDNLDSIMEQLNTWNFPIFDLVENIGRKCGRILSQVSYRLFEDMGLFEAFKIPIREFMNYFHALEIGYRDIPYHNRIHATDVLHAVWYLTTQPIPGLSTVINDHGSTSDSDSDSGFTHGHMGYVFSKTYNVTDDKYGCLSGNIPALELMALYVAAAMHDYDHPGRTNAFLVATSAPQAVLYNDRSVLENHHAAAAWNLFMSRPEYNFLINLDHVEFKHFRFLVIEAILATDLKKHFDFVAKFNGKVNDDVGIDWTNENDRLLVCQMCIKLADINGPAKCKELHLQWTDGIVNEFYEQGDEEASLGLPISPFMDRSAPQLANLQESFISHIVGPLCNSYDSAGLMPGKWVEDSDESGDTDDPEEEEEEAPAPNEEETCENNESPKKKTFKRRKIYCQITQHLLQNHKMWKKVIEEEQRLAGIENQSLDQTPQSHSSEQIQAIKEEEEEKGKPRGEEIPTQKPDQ
Chain of hrPDE10A (Q9Y233 whole entry): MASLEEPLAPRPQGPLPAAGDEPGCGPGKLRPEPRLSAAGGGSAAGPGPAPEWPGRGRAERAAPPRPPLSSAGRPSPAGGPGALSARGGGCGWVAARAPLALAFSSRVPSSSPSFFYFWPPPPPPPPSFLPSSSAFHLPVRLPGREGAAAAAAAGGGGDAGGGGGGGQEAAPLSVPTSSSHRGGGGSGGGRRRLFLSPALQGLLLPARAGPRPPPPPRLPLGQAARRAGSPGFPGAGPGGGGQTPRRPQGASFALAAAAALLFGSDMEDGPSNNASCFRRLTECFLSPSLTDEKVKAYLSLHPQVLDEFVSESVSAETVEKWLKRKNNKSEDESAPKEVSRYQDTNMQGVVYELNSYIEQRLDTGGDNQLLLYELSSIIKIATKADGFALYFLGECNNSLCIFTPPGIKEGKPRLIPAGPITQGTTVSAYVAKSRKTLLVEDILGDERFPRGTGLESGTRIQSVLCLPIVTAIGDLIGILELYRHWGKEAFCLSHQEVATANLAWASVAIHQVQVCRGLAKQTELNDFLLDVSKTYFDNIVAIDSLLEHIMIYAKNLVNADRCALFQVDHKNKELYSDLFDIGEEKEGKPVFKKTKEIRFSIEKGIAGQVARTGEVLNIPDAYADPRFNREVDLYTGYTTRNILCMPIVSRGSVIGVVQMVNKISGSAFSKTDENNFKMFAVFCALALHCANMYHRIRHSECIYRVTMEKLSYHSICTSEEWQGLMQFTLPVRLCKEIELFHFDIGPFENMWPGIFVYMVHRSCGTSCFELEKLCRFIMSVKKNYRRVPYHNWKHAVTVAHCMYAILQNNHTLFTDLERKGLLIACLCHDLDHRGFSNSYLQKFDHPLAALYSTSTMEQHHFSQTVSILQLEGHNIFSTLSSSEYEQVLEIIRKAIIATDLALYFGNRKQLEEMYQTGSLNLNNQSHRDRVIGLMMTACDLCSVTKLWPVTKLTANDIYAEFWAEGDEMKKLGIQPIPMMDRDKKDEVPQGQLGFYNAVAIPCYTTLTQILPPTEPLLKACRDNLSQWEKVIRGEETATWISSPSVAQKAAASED

SMILES | IC50 [1, 5] | potency in inhibiting TNF-α release in vivo, times stronger than PTX ([1]; ratio of IC50 values) | activity in inhibiting TNF-α release in vivo, times lower than that of rolipram [1] | chondritis / articular cartilage, histological score (result in words) [2] | subchondral osteoarthritis, histological score (result in words) [2] | synovitis / synovial inflammation, histological score (result in words) [2] | IC50 [3] | IC50 [4] | IC50 ([1]; read-out: IC50, concentration of compound producing 50% of Imax (inhibition of TNF-α release in vivo), Final estimate (CV%))
CC(O)CCCCn1c(=O)c2c(ncn2C)n(C)c1=O (racemic) [(±)-LSF, lisofylline] | 5.8 µg/mL (≈ 20.7 µM) | ~ 2.4 times | ~ 16 times | attenuated | failed to significantly diminish | significant alleviation | 73.4 µM | > 100 µM | 
Cn1c(=O)c2c(nc(NCCc3ccccc3)n2CCCC(=O)NN=Cc2ccccc2O)n(C)c1=O [GRMS-55, 4-(1,3-Dimethyl-2,6-dioxo-8-(phenethylamino)-2,3,6,7-tetrahydro-1H-purin-7-yl)-N′-(2-hydroxybenzylidene)butanehydrazide] | ~1.1 µg/mL (≈ 2.18 µM) |  | ~ 3 times | attenuated | attenuated | significant alleviation | 13.4 µM | 23.3 µM | 
COc1ccc(C2CNC(=O)C2)cc1OC1CCCC1 (stereo not shown) [Rolipram, rolipram] |  |  |  | significant amelioration | significant amelioration | significant amelioration |  |  | 0.36 µg/mL (≈ 1.31 µM)
